Data reported in the supplement of paper PMC7840683.
Structures can show the parent of a compound that is named as a salt.

System: HepaRG
Assay: LDH release cytotoxicity, % of total lysis control; higher = more cytotoxic
Details: 48 h
Method in brief: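 Eight-point half-log series of test chemicals, the highest at 100 µM, were given in duplicate for 48 h to single-lot HepaRG cells on collagen I-coated 96-well plates in serum-free induction medium with 0.5% DMSO. A Tecan Safire read resorufin fluorescence from CytoTox-ONE as a measure of LDH in 50 µL spent medium, with 0.1% Triton X in total lysis wells. Percent cytotoxicity was normalized to on-plate vehicle and total lysis controls and averaged over the duplicates.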

CCCCC(CC)COC(=O)c1ccc(C(=O)OCC(CC)CCCC)cc1 (configuration not stated) [Bis(2-ethylhexyl) terephthalate]
Details	LDH release cytotoxicity [%]
0.03162 µM	-2
0.1 µM	-1.13
0.3162278 µM	-1.76
1 µM	-2.5
3.16228 µM	-2.35
10 µM	-2.12
31.6228 µM	-2.26
100 µM	-1.14

CCOC(=O)CC(O)(CC(=O)OCC)C(=O)OCC [Triethyl citrate]
Details	LDH release cytotoxicity [%]
0.03162 µM	-0.555
0.1 µM	-0.568
0.3162278 µM	0.176
1 µM	-0.693
3.16228 µM	-0.115
10 µM	0.0535
31.6228 µM	-0.467
100 µM	1.14

CCCCN(CCCC)N=O [N-Nitrosodibutylamine]
Details	LDH release cytotoxicity [%]
0.03162 µM	-1.09
0.1 µM	-1.36
0.3162278 µM	-1.56
1 µM	-2.27
3.16228 µM	-1.56
10 µM	-1.2
31.6228 µM	-1.12
100 µM	0.0939

COc1cc(-c2nc(NC(=O)c3cc4cc(C)cc(C)c4n3CC(=O)O)sc2CCC2CCCCC2)c(OC)cc1Cl
Details	LDH release cytotoxicity [%]
0.0267212 µM	0.271
0.0845 µM	-0.13
0.267213 µM	-0.107
0.845 µM	0.419
2.67212 µM	-0.184
8.45 µM	37.3
26.7212 µM	67.7
84.5 µM	78.3

CC1(C)NC(=O)N(c2ccc([N+](=O)[O-])c(C(F)(F)F)c2)C1=O
Details	LDH release cytotoxicity [%]
0.03162 µM	-1.893
0.1 µM	-2.02
0.3162278 µM	-1.85
1 µM	-2.09
3.16228 µM	-2
10 µM	-1.72
31.6228 µM	-1.66
100 µM	-0.93

CC(C)=CC1C(C(=O)OCc2coc(Cc3ccccc3)c2)C1(C)C (configuration not stated) [Resmethrin]
Details	LDH release cytotoxicity [%]
0.03162 µM	-0.985
0.1 µM	-0.737
0.3162278 µM	-0.651
1 µM	-1.31
3.16228 µM	-0.881
10 µM	-0.19
31.6228 µM	-0.451
100 µM	0.209

CCCCNC(=O)OCC#CI [3-Iodo-2-propynyl-N-butylcarbamate]
Details	LDH release cytotoxicity [%]
0.0301998 µM	3.83
0.0955 µM	4.17
0.301997 µM	4.24
0.955 µM	4.49
3.01998 µM	4.53
9.55 µM	4.22
30.199752 µM	19.6
95.5 µM	82.9

CS(=O)(=O)OCCCCOS(C)(=O)=O [Busulfan]
Details	LDH release cytotoxicity [%]
0.03162 µM	-1.48
0.1 µM	-0.871
0.3162278 µM	-1.32
1 µM	-2.08
3.16228 µM	-1.19
10 µM	-0.461
31.6228 µM	0.385
100 µM	0.593

CCC1CCC(NCc2cc3c(cc2OC)C2CC2C(=O)N3C)C(c2ccccc2)N1 (configuration not stated)
Details	LDH release cytotoxicity [%]
0.03162 µM	-1.16
0.1 µM	-1.78
0.3162278 µM	-0.445
1 µM	-1.5
3.16228 µM	-0.96
10 µM	-0.794
31.6228 µM	0.439
100 µM	7.84

CCSC(=O)N1CCCCCC1 [Molinate]
Details	LDH release cytotoxicity [%]
0.03162 µM	-2.17
0.1 µM	-2.09
0.3162278 µM	-1.9
1 µM	-2.25
3.16228 µM	-1.81
10 µM	-1.34
31.6228 µM	-0.237
100 µM	1.3

CCCCCCC(CCCCCCCCCCC(=O)OCC(COC(C)=O)OC(C)=O)OC(C)=O (configuration not stated) [Grinstad Soft-N-Safe]
Details	LDH release cytotoxicity [%]
0.015811 µM	-1.88
0.05 µM	-1.59
0.158114 µM	-1.52
0.5 µM	-1.93
1.58114 µM	-2.07
5 µM	-1.64
15.8114 µM	-0.943
50 µM	1.04

CCN(CC)C(=O)SCc1ccc(Cl)cc1 [Thiobencarb]
Details	LDH release cytotoxicity [%]
0.03162 µM	-1.69
0.1 µM	-1.48
0.3162278 µM	-1.6
1 µM	-2.11
3.16228 µM	-1.17
10 µM	-1.78
31.6228 µM	-1.01
100 µM	2.18

CC(=O)OCC=C(C)CCC=C(C)C [Geranyl acetate]
Details	LDH release cytotoxicity [%]
0.031623 µM	-1.3
0.1 µM	-3.48
0.316228 µM	-4.47
1 µM	-4.04
3.16228 µM	-4.04
10 µM	-3.42
31.6228 µM	-1.98
100 µM	-0.423

CCOc1cc(Oc2ccc(C(F)(F)F)cc2Cl)ccc1[N+](=O)[O-] [Oxyfluorfen]
Details	LDH release cytotoxicity [%]
0.03162 µM	-0.516
0.1 µM	0.229
0.3162278 µM	-0.848
1 µM	-0.859
3.16228 µM	-0.159
10 µM	-0.932
31.6228 µM	-2.53
100 µM	-1.47

C=CCc1ccc(OC)c(OC)c1 [Methyleugenol]
Details	LDH release cytotoxicity [%]
0.03162 µM	-1.16
0.1 µM	-0.0217
0.3162278 µM	-0.545
1 µM	-0.949
3.16228 µM	-0.679
10 µM	-0.724
31.6228 µM	-0.435
100 µM	0.911

CCc1ccc(O)c(C(C)(C)C)c1 [2-tert-Butyl-4-ethylphenol]
Details	LDH release cytotoxicity [%]
0.03162 µM	-1.09
0.1 µM	-1.23
0.3162278 µM	-1.36
1 µM	-2.09
3.16228 µM	-0.936
10 µM	0.529
31.6228 µM	-0.602
100 µM	0.703

CCC1CC(N(Cc2cc(C(F)(F)F)cc(C(F)(F)F)c2)C(C)=O)c2cc(C(F)(F)F)ccc2N1C(=O)OC(C)C (configuration not stated)
Details	LDH release cytotoxicity [%]
0.03162 µM	-0.374
0.1 µM	0.141
0.3162278 µM	-0.658
1 µM	-0.248
3.16228 µM	-1.3
10 µM	0.748
31.6228 µM	3.11
100 µM	7.54

CC(C)(C)C(O)C(Cc1ccc(Cl)cc1)n1cncn1 (configuration not stated) [Paclobutrazol]
Details	LDH release cytotoxicity [%]
0.03162 µM	-0.9138
0.1 µM	-1.5
0.3162278 µM	-1.02
1 µM	-1.49
3.16228 µM	-1.96
10 µM	-1.1
31.6228 µM	-1.36
100 µM	-0.278

CC(C)(C)C(O)C(Oc1ccc(Cl)cc1)n1cncn1 (configuration not stated) [Triadimenol]
Details	LDH release cytotoxicity [%]
0.03162 µM	-1.62
0.1 µM	-2.06
0.3162278 µM	-1.64
1 µM	-1.25
3.16228 µM	-1.3
10 µM	-0.0607
31.6228 µM	-0.253
100 µM	0.57
